This note sets out measurements from BindingDB's records for doi:10.1016/j.bmcl.2013.11.055 (Shanghai Hengrui Pharmaceutical, 2013).

As a reminder, the IC50 is the point on the concentration scale where inhibition reaches its midpoint.

Experiment [1] can be described thus: Antagonist activity at P2Y12 receptor in rat platelet-rich plasma assessed as inhibition of ADP-induced platelet aggregation incubated for 5 mins prior to ADP-challenge by light transmission-based assay.
Experiment [2] can be described thus: Antagonist activity at P2Y12 receptor in human platelet-rich plasma assessed as inhibition of ADP-induced platelet aggregation incubated for 5 mins prior to ADP-challenge by light transmission-based assay.

For `CCCSc1nc(N[C@@H]2C[C@H]2c2ccc(F)c(F)c2)c2nnn([C@@H]3C[C@H](OCC(F)F)[C@@H](O)[C@H]3O)c2n1`, the IC50 in experiment [1] was 31.3 µM.

Consider `CCCSc1nc(N[C@@H]2C[C@H]2c2ccc(Cl)s2)c2nnn([C@@H]3C[C@H](OCCO)[C@@H](O)[C@H]3O)c2n1`, for which the IC50 in experiment [1] stood at 0.16 µM; in experiment [2], 0.28 µM.

With `CCCSc1nc(N[C@@H]2C[C@H]2c2ccc(F)c(F)c2)c2nnn([C@H]3[C@H](O)[C@H](O)[C@@H](O)[C@H]3F)c2n1`, the IC50 in experiment [1] was 0.29 µM; in experiment [2] it was 0.22 µM.

Regarding `CCCSc1nc(N[C@@H]2C[C@H]2c2ccc(F)c(F)c2)c2nnn([C@@H]3C[C@H](OCC(F)CO)[C@@H](O)[C@H]3O)c2n1` (stereo not given in full), the IC50 in experiment [1] was found to be 0.41 µM; in experiment [2], 4.82 µM.

As to `CCCSc1nc(N[C@@H]2C[C@H]2c2ccc(F)c(F)c2)c2nnn([C@H]3[C@H](O)[C@H](O)[C@@H](O)[C@@H]3O)c2n1`, the half-maximal inhibitory concentration (IC50) in experiment [1] is 0.65 µM; in experiment [2], 16.3 µM.

For the compound `CCCSc1nc(N[C@@H]2C[C@H]2c2scnc2C)c2nnn([C@@H]3C[C@H](OCCO)[C@@H](O)[C@H]3O)c2n1`, the half-inhibitory concentration (IC50) in experiment [1] worked out at 1.81 µM.

On to `CCCSc1nc(N[C@@H]2C[C@H]2c2ccc(F)c(F)c2)c2nnn([C@H]3[C@H](O)[C@H](O)[C@@H](OCCO)[C@@H]3O)c2n1`, for which the IC50 in experiment [1] was 1.38 µM; in experiment [2], 11.3 µM.

Take `CCCSc1nc(N[C@@H]2C[C@H]2c2ccc(F)c(F)c2)c2nnn([C@H]3[C@H](O)[C@H](O)[C@@H](OCCO)[C@@H]3F)c2n1`: the IC50 in experiment [2] was determined as 6.35 µM.

For the compound `CCCSc1nc(N[C@@H]2C[C@H]2c2ccc(F)c(F)c2)c2nnn([C@@H]3C[C@H](OCCO)[C@@H](O)[C@H]3O)c2n1` [AR-C126532XX], the IC50 in experiment [2] was 0.5 µM.

Consider `CCCSc1nc(N[C@@H]2C[C@H]2c2ccc(F)c(F)c2)c2nnn([C@H]3[C@H](O)[C@H](O)[C@@H](O)[C@@H]3F)c2n1`, for which, in experiment [2], the IC50 is 1.67 µM.

For `CCCSc1nc(N[C@@H]2C[C@H]2c2ccc(F)c(F)c2)c2nnn([C@@H]3C=C[C@@H](O)[C@H]3O)c2n1`, the IC50 was 0.85 µM in experiment [1] and 1.97 µM in experiment [2].

Regarding `CCCSc1nc(N[C@@H]2C[C@H]2c2ccc(F)c(F)c2)c2nnn([C@H]3[C@H](O)[C@H](O)[C@@H](OCCO)[C@H]3F)c2n1`, the IC50 amounted to 0.48 µM in experiment [1] and 0.35 µM in experiment [2].

With `CCCSc1nc(N[C@@H]2C[C@H]2c2ccc(F)c(F)c2)c2nnn([C@@H]3C[C@H](OCC(O)CO)[C@@H](O)[C@H]3O)c2n1` (stereo not given in full), in experiment [1], the IC50 was determined as 0.148 µM.

As to `CCCSc1nc(N[C@@H]2C[C@H]2c2ccc(F)c(F)c2)c2nnn([C@@H]3C[C@H](F)[C@@H](O)[C@H]3O)c2n1`, the concentration for half-maximal inhibition (IC50) in experiment [1] was 0.11 µM; in experiment [2] it was 0.33 µM.

As to `CCCSc1nc(N[C@@H]2C[C@H]2c2cccnc2)c2nnn([C@@H]3C[C@H](OCCO)[C@@H](O)[C@H]3O)c2n1`, the half-maximal inhibitory concentration (IC50) in experiment [1] amounted to 1.52 µM.

As for `CCCSc1nc(N[C@@H]2C[C@H]2c2ccc(F)c(F)c2)c2nnn(C3[C@H](O)[C@H](O)[C@@H](O)[C@H]3O)c2n1` (stereo not given in full), the IC50 in experiment [1] amounted to 1.25 µM; in experiment [2], 1.73 µM.
